Results from publication PMC5847527, “Identification of a novel 2-oxindole fluorinated derivative as in vivo antitumor agent for prostate cancer acting via AMPK activation” (Scientific Reports, 2018).
Values joined by “and” are separate entries in the source; they are usually repeats but may differ in a detail not shown here. Equal values may be shown once.

How the values were obtained:
AMPK [1] = molecular target: T1, AMPK (Homo sapiens, UniProt Q13131); test: AMPK and ACC phosphorylation by Western blot in PC-3 cells; format: cell-based; conditions: 25 µM, 1 hour; for Thr172 phosphorylation of AMPK (pAMPK/AMPK): compared to controls
T1 construct: endogenous in cells; host or cells: PC-3, DU145, LNCaP
Text: To investigate the effect of the compounds on AMPK activity at cellular level, compounds 8a-c and 9a-b were selected to perform AMPK phosphorylation assays in human prostate cancer cell lines. We use the PC-3 cell line as it is androgen-resistant and represents the advanced and aggressive stage of prostate cancer. […] AMPK inhibits lipogenic pathway through phosphorylation of its well-known substrate acetyl-CoA carboxylase (ACC). To confirm the modulation of AMPK activity in prostate cells by the compounds, we determined levels of phosphorylated ACC in 2-oxindole fluorinated derivatives-treated cells. […] It is worthy to note that the highest ACC phosphorylation was obtained with compound 8c denoting a powerful activity of this compound in PC-3 cells.
(§1) Figure 2 Effect of 2-oxindole fluorinated derivatives on AMPK activity in prostate cancer cells. (A) PC-3, DU145 and LNCaP cells were treated with 25 µM of the selected 2-oxindole fluorinated derivatives for 1 hour. Levels of the phosphorylated AMPK (pAMPK), phosphorylated ACC (pACC) and their total forms were determined by Western blot. Upper panel, a representative Western blot of three different experiments. β-tubulin (β-Tub) serves as a loading control. […] Lower panels, densitometric analyses of bands represented as the mean of the ratio pAMPK/AMPK or pACC/ACC ± SD of three different experiments. *p < 0.05 compared with the controls by one-way ANOVA followed by Fisher’s LSD test; ^#p < 0.05 compared with 2-oxindole fluorinated derivates or with the AMPK activators AMP or A769662 by one-way ANOVA followed by Tukey test.
(§2) Human prostate cancer epithelial PC-3, DU145 and LNCaP and human prostate normal RWPE-1 cells were purchased from American Type Culture Collection (ATCC CRL-1435 CRL-1740 and CRL 11609 respectively) (Rockville, MD, USA). The human prostate normal PNT2 cell line was purchased to ECACC (European Collection of Cell cultures, Salisbury, SP4 0JG, UK). Cells were routinely grown in RPMI 1640 medium supplemented with 100 IU/ml penicillin G sodium, 100 µg/ml streptomycin sulfate, 0.25 µg/ml amphotericin B (Invitrogen, Paisley, UK) and 10% fetal calf serum. Cells were used at passages between 10–20. For treatment experiments, cells were plated and grown over night, the medium was then replaced with serum-free RPMI 1640 for 24 hours and then incubated with different doses of the compounds for the indicated times.
Cells were lysed in Lysis buffer (50 mM Tris pH 7.4, 0.8 M NaCl, 5 mM MgCl2, 0.1% Triton X-100) containing Protease Inhibitor and Phosphatase inhibitor Cocktails (Roche, Basel, Switzerland). Protein concentrations were measured by BioRad™ protein assay kit (Richmond, CA, USA). Equal amount of protein (20 μg) from each sample was separated on 8% SDS–PAGE gels and transferred to PVDF membranes (BioRad). The membranes were blocked with blocking buffer (1× TBS, 0.1% Tween 20 with 5% w/v fat-free dry milk), washed and incubated with primary antibodies at 4 °C for 12 h. The membranes were subsequently washed with TBS-T (1× TBS and 0.1% Tween 20) and incubated with horseradish peroxidase-conjugated anti-mouse or anti-rabbit IgG antibodies (Sigma, St Louis, MO, USA) at room temperature for 1 h. The immune complex was visualized with an ECL system (Cell Signaling Technology). Films were analyzed by densitometry. The anti-pAMPKα1-thr172, pACC-ser79, pP53, P21, pRaptor and the antibodies against the corresponding total forms were obtained from Cell Signaling Technology (Danvers, MA, USA). The anti-caspase 3 and anti-procaspase 3 were from Santa Cruz Biotechnology (Dallas, Texas, USA). The anti-HIF1A was from Novus Biologicals LLC (Littleton, CO, USA). The anti-Cyclin D1 antibody was obtained from ThermoFisher (Alcobendas, Madrid, Spain). All the other chemicals were obtained from Sigma (St. Louis, MO, USA).

[2] = test system: PTN2, RWPE-1, PC3, DU145 and LNCaP prostate cells; test: Cell viability by MTT assay, statements for the five cell lines together; format: cell-based, human; conditions: 1–100 µM, dose-dependent, 24 hours
PC-3 cells = test: Cell viability by MTT assay, PC-3; format: cell-based, human; conditions: PC-3, 50 μM
Procedure: (§3) Figure 3 Comparison of the effect of 2-oxindole fluorinated derivatives on the proliferation of human prostate cancer cells. (A) Normal (PTN2 and RWPE-1) and cancer (PC3,DU145 and LNCaP) prostate cells were treated with different doses of the compounds for 24 hours and cell viability was monitored by MTT assay. […] (C) PC-3, DU145 and LNCaP cells were treated with 25 µM of compound 8c for different times. Values were normalized with the control and represent the mean ± SD of at least three independent experiments. *p < 0.05 and **p < 0.01 compared to control by the Student’s - test.
as §2
(§4) Cell viability was determined by 3-(4,5-dimethylthiazol-2-yl)-2,5-diphenyltetrazolium bromide (MTT) (Sigma-Aldrich) method. In brief, a total of 5000 cells/well were seeded into 12-well plate in a final volume of 1 mL. After treatments, 20 µl MTT solution (5 mg/ml in PBS) was added to the medium and cells were incubated at 37 °C for 4 h. Then, the supernatant was discarded and isopropanol was added to dissolve the formazan crystals. Treatments were carried out in triplicate. The optical density in each well was evaluated by measurement of absorbance at 490 and 650 nm using a microplate reader (ELX 800 Bio-Tek Intruments, INC). IC50 values were calculated using GraphPad Prism vs 6.0 (GraphPad Software, Inc, La Jolla, CA, USA). Cell viability was also determined by counting viable and dead cells by Trypan blue staining. Trypan blue positive and negative cells were counted using a Countess^TM automated cell counter (Invitrogen, Carlsbad, CA, USA). Results were expressed in relation to total number of cells counted.

DU145 cells = test: Cell viability by MTT assay, DU145; format: cell-based, human; conditions: DU145, 50 μM
Procedure: as §3, §2, §4

LNCaP cells = test: Cell viability by MTT assay, LNCaP; format: cell-based, human; conditions: 50 μM
Procedure: as §3, §2
as §4, with “In brief, a total of 5000 cells/well were seeded into 12-well plate in a final volume of 1 mL. After treatments, 20 µl MTT solution (5 mg/ml in PBS) was added to the medium and cells were incubated at 37 °C for 4 h. Then, the supernatant was discarded and isopropanol was added to dissolve the formazan crystals. Treatments were carried out in triplicate.” left out

PNT2 cells = test: Cell viability by MTT assay, PNT2 normal prostate cells; format: cell-based, human; conditions: PNT2, 50 μM
Procedure: as §3, §2
as §4, with “In brief, a total of 5000 cells/well were seeded into 12-well plate in a final volume of 1 mL. After treatments, 20 µl MTT solution (5 mg/ml in PBS) was added to the medium and cells were incubated at 37 °C for 4 h. Then, the supernatant was discarded and isopropanol was added to dissolve the formazan crystals. Treatments were carried out in triplicate.” left out

RWPE-1 cells = test: Cell viability by MTT assay, RWPE-1 normal prostate cells; format: cell-based, human; conditions: RWPE-1, 50 μM
Procedure: as §3, §2
as §4, with “In brief, a total of 5000 cells/well were seeded into 12-well plate in a final volume of 1 mL. After treatments, 20 µl MTT solution (5 mg/ml in PBS) was added to the medium and cells were incubated at 37 °C for 4 h. Then, the supernatant was discarded and isopropanol was added to dissolve the formazan crystals. Treatments were carried out in triplicate.” left out

AMPK [3] = test: Characterization of AMPK activation by Western blot in PC-3 and LNCaP cells (Dorsomorphin, siRNA); format: cell-based, human; conditions: PC-3 and LNCaP cells, 5 μM Dorsomorphin + 25 µM 8c, 1 h and 24 h
Procedure: To further confirm the compound 8c-induced activation of AMPK, PC-3 and LNCaP cells were incubated with the compound for 1 h and 24 hours in the presence of the AMPK inhibitor Dorsomorphin. […] Accordingly, ACC phosphorylation was increased at 1 h and 24 h and prevented by Dorsomorphin in both cell lines. AMPK inhibits mTORC1 through phosphorylation of Raptor on two well-conserved serine residues (ser722 and ser792) inducing cell-cycle arrest in response to an energy stress. To further support the 8c-induced AMPK activation, we determined Raptor phosphorylation on Ser792 in prostate cells.
Figure 5 AMPK activation by compound 8c in prostate cancer cells. (A) PC-3 and LNCaP cells were treated with vehicle, 25 µM compound 8c, 25 µM compound 8c + 5 μM Dorsomorphin (8c + D) or 5 μM Dorsomorphin (D), for 1 hour or 24 hours and levels of the phosphorylated AMPK (pAMPK), phosphorylated ACC (pACC), phosphorylated Raptor (pRaptor) forms and HIF1α were determined by Western blot. Upper panel, representative Western blot of three different experiments. β-tubulin (β-Tub) serves as a loading control. Lower panel, densitometric analyses of bands represented as the mean of the ratio pAMPK/AMPK or pACC/ACC. (B) Cell viability monitored by MTT assay in PC-3 and LNCaP cells treated with vehicle, 25 µM and 50 μM compound 8c alone or in the presence of 5 μM Dorsomorphin or transfected with control siRNA (siC) or α1AMPK-selective siRNA (siAMPK). (C) LNCaP cells were treated with vehicle, 25 µM compound 8c, 25 µM compound 8c + 5 μM Dorsomorphin (8c + D) or 5 μM Dorsomorphin (D), for 24 hours and levels of Androgen Receptor (AR), Prostate specific antigen (PSA) and Prostate specific membrane antigen (PSMA) were determined by Western blot.Values were normalized with the control and represent the mean ± SD of at least three independent experiments. *p < 0.05 and **p < 0.01 compared to control and ^#p < 0.05 and ^##p < 0.01 compared with 8c-treated group by the Student’s t-test.
AMPK is a heterotrimeric protein composed by catalytic (α) and regulatory (β and γ) subunits. In mammals, different isoforms of α, β and γ subunits can associate to produce up to 12 AMPK different combinations. […]
Figure 6 Phosphorylation of AMPK and ACC in prostate cells transfected with selective AMPKα1 or AMPKα2 siRNA. […] Levels of the phosphorylated AMPK (pAMPK), phosphorylated ACC (pACC) and their total forms were determined by Western blot. […]
Cells were lysed in Lysis buffer (50 mM Tris pH 7.4, 0.8 M NaCl, 5 mM MgCl2, 0.1% Triton X-100) containing Protease Inhibitor and Phosphatase inhibitor Cocktails (Roche, Basel, Switzerland). Protein concentrations were measured by BioRad™ protein assay kit (Richmond, CA, USA). […]

AMPK [4] = test: AMPK and ACC phosphorylation by Western blot in LNCaP cells; format: cell-based, human; conditions: 25 µM, 1 hour
Procedure: as §1
Similar results were obtained although AMPK stimulation by compound 8c was not so strong (Fig. 2A). […]
Cells were lysed in Lysis buffer (50 mM Tris pH 7.4, 0.8 M NaCl, 5 mM MgCl2, 0.1% Triton X-100) containing Protease Inhibitor and Phosphatase inhibitor Cocktails (Roche, Basel, Switzerland). Protein concentrations were measured by BioRad™ protein assay kit (Richmond, CA, USA). […] Films were analyzed by densitometry. […]

T1 sequence (Q13131 whole entry): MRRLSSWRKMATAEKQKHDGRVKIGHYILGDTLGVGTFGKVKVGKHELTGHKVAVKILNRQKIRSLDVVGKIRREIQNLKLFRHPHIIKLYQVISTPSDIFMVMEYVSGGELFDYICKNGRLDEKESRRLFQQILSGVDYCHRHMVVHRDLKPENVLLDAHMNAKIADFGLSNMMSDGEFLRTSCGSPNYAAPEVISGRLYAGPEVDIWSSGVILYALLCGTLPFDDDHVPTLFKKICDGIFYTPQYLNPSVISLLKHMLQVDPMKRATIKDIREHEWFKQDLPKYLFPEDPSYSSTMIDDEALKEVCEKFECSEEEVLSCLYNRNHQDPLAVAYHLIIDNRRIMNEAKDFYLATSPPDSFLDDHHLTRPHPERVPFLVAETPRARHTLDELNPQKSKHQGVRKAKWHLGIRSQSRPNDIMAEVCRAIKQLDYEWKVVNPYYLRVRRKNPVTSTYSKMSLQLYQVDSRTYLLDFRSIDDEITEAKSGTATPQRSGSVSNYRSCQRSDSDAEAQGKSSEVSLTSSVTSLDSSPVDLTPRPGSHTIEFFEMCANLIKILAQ
T1 sequence (Q9Y478 2-270 partner limits assumed): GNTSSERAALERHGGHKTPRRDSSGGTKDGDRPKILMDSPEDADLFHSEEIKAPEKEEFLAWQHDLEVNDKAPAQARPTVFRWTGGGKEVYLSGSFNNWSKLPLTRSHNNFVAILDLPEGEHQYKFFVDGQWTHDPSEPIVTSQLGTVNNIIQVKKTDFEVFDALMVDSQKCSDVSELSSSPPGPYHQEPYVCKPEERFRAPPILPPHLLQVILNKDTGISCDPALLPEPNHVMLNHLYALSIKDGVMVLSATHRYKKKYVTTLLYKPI
T1 sequence (P54619 whole entry partner): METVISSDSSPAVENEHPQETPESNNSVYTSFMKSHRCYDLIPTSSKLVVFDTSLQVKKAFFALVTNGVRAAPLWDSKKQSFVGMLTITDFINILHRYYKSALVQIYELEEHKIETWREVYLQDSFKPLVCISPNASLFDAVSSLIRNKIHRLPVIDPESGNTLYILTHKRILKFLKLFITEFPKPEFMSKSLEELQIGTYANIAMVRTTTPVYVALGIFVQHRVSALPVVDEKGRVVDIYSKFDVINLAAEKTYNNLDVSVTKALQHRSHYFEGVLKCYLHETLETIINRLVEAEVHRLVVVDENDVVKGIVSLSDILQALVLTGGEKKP

| SMILES | ACC phosphorylation (pACC/ACC) (AMPK [1]) | Thr172 phosphorylation of AMPK (pAMPK/AMPK) (AMPK [1]) | inhibitory efficacy on cells viability at 50 μM (PC-3 cells) | inhibitory efficacy on cells viability at 50 μM (DU145 cells) | other results |
| --- | --- | --- | --- | --- | --- |
| O=C1N(Cc2ccccc2)c2ccccc2C1(F)Cc1ccc[nH]1 (stereo not shown) [Compound 9a, 3-((1H-pyrrol-2-yl)methyl)-1-benzyl-3-fluoroindolin-2-one] | inhibited ACC phosphorylation | slightly, although significantly, inhibited AMPK phosphorylation | – | – | inhibition of cell proliferation [2]: effectively inhibited cell proliferation |
| c1cc(-c2cnn3cc(-c4ccc(OCCN5CCCCC5)cc4)cnc23)ccn1 [Dorsomorphin, reference compound] | – | – | – | – | effect on AMPK activation by compound 8c (AMPK [3]): blocked AMPK activation by compound 8c both at 1 h and 24 h |
| O=C1Nc2ccccc2C1(F)Cc1ccc[nH]1 (stereo not shown) [Compound 8a, 3-((1H-pyrrol-2-yl)methyl)-3-fluoroindolin-2-one] | inhibited ACC phosphorylation | slightly, although significantly, inhibited AMPK phosphorylation | – | – | melting point: 143 to 146 °C |

The next lines start with results.

| ACC phosphorylation (pACC/ACC) (AMPK [1]) | SMILES | Thr172 phosphorylation of AMPK (pAMPK/AMPK) (AMPK [1]) | inhibitory efficacy on cells viability at 50 μM (PC-3 cells) | inhibitory efficacy on cells viability at 50 μM (DU145 cells) | other results |
| --- | --- | --- | --- | --- | --- |
| inhibited ACC phosphorylation | O=C1Nc2ccc(Cl)cc2C1(F)Cc1ccc(N2CCCC2)cc1 (stereo not shown) [Compound 8b, 5-chloro-3-fluoro-3-(4-(pyrrolidin-1-yl)benzyl)indolin-2-one] | slightly, although significantly, inhibited AMPK phosphorylation | 3% | 14% | inhibitory efficacy on cells viability at 50 μM (LNCaP cells): 11%; inhibitory efficacy on cells viability at 50 μM (PNT2 cells): 0%; inhibitory efficacy on cells viability at 50 μM (RWPE-1 cells): 17% |
| augmented pACC | O=C1N(Cc2ccccc2)c2ccc(Cl)cc2C1(F)Cc1ccc(N2CCCC2)cc1 (stereo not shown) [Compound 9b, 1-benzyl-5-chloro-3-fluoro-3-(4-(pyrrolidin-1-yl)benzyl)indolin-2-one] | weak AMPK activation | 27% and 23% | 14% and 17% | AMPK phosphorylation (pAMPK/AMPK) (AMPK [4]): slightly increases AMPK phosphorylation in PC-3 cells but not in LNCaP cells |
